# Calls of active or inactive are those of the source. No cut-off for these calls is given here.
# Key:
# [1] = test system: Cell membrane; experiment: Induction of cell membrane depolarization in Staphylococcus aureus assessed as increase in fluorescence intensity at 2 times MIC by DiSC3(5) dye based fluorescence assay
# [2] = test system: Escherichia coli; experiment: Antibacterial activity against Escherichia coli KCTC 1682 strain assessed as bacterial growth inhibition measured after 6 hrs in presence of proteinase K by radial diffusion assay; format: functional, organism-based
# [3] = test system: Cell membrane; experiment: Induction of cell membrane depolarization in Staphylococcus aureus assessed as fluorescence intensity at 2 to 16 times MIC by DiSC3(5) dye based fluorescence assay; format: subcellular
# [4] = test system: Erythrocyte; experiment: Hemolytic activity in sheep RBC assessed as minimal hemolytic concentration causing 10% hemolysis incubated for 1 hr by ELISA; format: toxicity, cell-based, Ovis aries
# [5] = test system: Escherichia coli; experiment: Antibacterial activity against Escherichia coli KCTC 1682 strain assessed as bacterial growth inhibition measured after 6 hrs in presence of pepsin by radial diffusion assay; format: functional, organism-based
# [6] = test system: Cell membrane; experiment: Induction of cell membrane damage in Escherichia coli KCTC 1682 assessed as increase in fluorescent intensity at 2 times MIC incubated for 30 mins by PI staining based flow cytometry assay (reference value: 9.79 %); format: subcellular
# [7] = test system: Escherichia coli; experiment: Antibacterial activity against Escherichia coli KCTC 1682 strain assessed as bacterial growth inhibition measured after 6 hrs in presence of chymotrypsin by radial diffusion assay; format: functional, organism-based
# [8] = test system: Cell membrane; experiment: Induction of inner membrane permeabilization in Escherichia coli ML-35 assessed as increase in […] at 2 times MIC by ONPG staining based analysis
# [9] = test system: Enterococcus faecium; experiment: Antibacterial activity against vancomycin-resistant Enterococcus faecium ATCC 51559 strain assessed as bacterial growth inhibition measured at 18 to 24 hrs by microdilution assay; format: functional; conditions: time 18-24 hrs
# [10] = test system: Cell membrane; experiment: Induction of cell membrane depolarization in Staphylococcus aureus assessed as increase in fluorescence intensity at 2 times MIC by SYTOX green staining based analysis
# [11] = test system: Escherichia coli; experiment: Antibacterial activity against Escherichia coli KCTC 1682 strain assessed as bacterial growth inhibition measured after 6 hrs in presence of trypsin by radial diffusion assay; format: functional, organism-based
# [12] = test system: Cell membrane; experiment: Induction of outer membrane permeabilization in Escherichia coli KCTC 1682 assessed as increase in fluorescence intensity at 2 to 8 ug/ml by NPN staining based analysis; conditions: dose 2-8 µg/ml
# [13] = test system: Pseudomonas aeruginosa; experiment: Antibacterial activity against multidrug-resistant Pseudomonas aeruginosa CCARM 2095 strain assessed as bacterial growth inhibition measured at 18 to 24 hrs by microdilution assay; format: functional; conditions: time 18-24 hrs
# [14] = test system: Pseudomonas aeruginosa; experiment: Synergistic antibacterial activity against multidrug-resistant Pseudomonas aeruginosa CCARM 2095 strain assessed as bacterial growth inhibition by checkerboard assay; format: functional
# [15] = test system: Pseudomonas aeruginosa; experiment: Additive antibacterial activity against multidrug-resistant Pseudomonas aeruginosa CCARM 2095 strain assessed as bacterial growth inhibition by checkerboard assay; format: functional
# [16] = test system: Staphylococcus aureus; experiment: Antibacterial activity against methicillin-resistant Staphylococcus aureus CCARM 3090 strain assessed as bacterial growth inhibition measured at 18 to 24 hrs by microdilution assay; format: functional; conditions: time 18-24 hrs
# [17] = test system: Staphylococcus aureus; experiment: Antibacterial activity against methicillin-resistant Staphylococcus aureus CCARM 3089 strain assessed as bacterial growth inhibition measured at 18 to 24 hrs by microdilution assay; format: functional; conditions: time 18-24 hrs
# [18] = test system: Pseudomonas aeruginosa; experiment: Antibacterial activity against multidrug-resistant Pseudomonas aeruginosa CCARM 2109 strain assessed as bacterial growth inhibition measured at 18 to 24 hrs by microdilution assay; format: functional; conditions: time 18-24 hrs
# [19] = test system: Pseudomonas aeruginosa; experiment: Antibacterial activity against multidrug-resistant Pseudomonas aeruginosa CCARM 2095 strain assessed as bacterial growth inhibition by checkerboard assay; format: functional
# [20] = test system: Pseudomonas aeruginosa; experiment: Bactericidal activity against multidrug-resistant Pseudomonas aeruginosa CCARM 2095 measured after 24 hrs by time-kill kinetics assay; format: functional, organism-based
# [21] = test system: Staphylococcus aureus; experiment: Antibacterial activity against methicillin-resistant Staphylococcus aureus CCARM 3095 strain assessed as bacterial growth inhibition measured at 18 to 24 hrs by microdilution assay; format: functional; conditions: time 18-24 hrs
# [22] = test system: Pseudomonas aeruginosa; experiment: Bacteriostatic activity against multidrug-resistant Pseudomonas aeruginosa CCARM 2095 measured after 24 hrs by time-kill kinetics assay; format: functional, organism-based
compound,measurement,setting,value
CC[C@H](C)[C@H](NC(=O)CN)C(=O)NCC(=O)N[C@@H](C)C(=O)N[C@H](C(=O)N[C@@H](CC(C)C)C(=O)N[C@@H](CCCCN)C(=O)N[C@H](C(=O)N[C@@H](CC(C)C)C(=O)N[C@H](C(=O)N[C@H](C(=O)NCC(=O)N[C@@H](CC(C)C)C(=O)N1CCC[C@H]1C(=O)N[C@@H](C)C(=O)N[C@@H](CC(C)C)C(=O)N[C@H](C(=O)N[C@@H](CO)C(=O)N[C@@H](Cc1c[nH]c2ccccc12)C(=O)N[C@H](C(=O)N[C@@H](CCCCN)C(=O)N[C@@H](CCCNC(=N)N)C(=O)N[C@@H](CCCCN)C(=O)N[C@@H](CCCNC(=N)N)C(=O)N[C@@H](CCC(N)=O)C(=O)N[C@@H](CCC(N)=O)C(N)=O)[C@@H](C)CC)[C@@H](C)CC)[C@@H](C)O)[C@@H](C)O)C(C)C)C(C)C [MELITTIN],Activity,[1],Active
same,Activity,[2],inactive
same,Activity,[3],inactive
same,MHC,[4],3.2 µM
same,Activity,[5],inactive
same,Flu intensity,[6],64.2%
same,Activity,[7],inactive
same,Activity,[8],Active
same,MIC,[9],0.0056 mM
same,Activity,[10],Active
same,Activity,[11],inactive
same,Activity,[12],Active
O=C(N[C@H](CO)[C@H](O)c1ccc([N+](=O)[O-])cc1)C(Cl)Cl [CHLORAMPHENICOL],MIC,[13],6.33 mM
same,MIC,[14],1020 µg/mL
same,MIC,[15],1020 µg/mL
same,MIC,[16],> 6.33 mM
same,MIC,[17],3.16 mM
same,MIC,[18],> 6.33 mM
same,MIC,[19],1020 µg/mL
same,Activity,[20],inactive
same,MIC,[21],> 6.33 mM
same,Activity,[22],inactive
same,MIC,[9],1.58 mM
